Values quoted from earlier work, collected in US20220313139A1, “APPARATUSES AND METHODS FOR IDENTIFICATION AND TREATMENT OF PATIENTS RESPONSIVE TO ANTIPSYCHOTIC AGENT THERAPY” (priority 2019, published 2022).

Legend:
patients [1] = conditions: clinical studies, halted
patients [2] = conditions: early phase II monotherapy trial
[3] = in humans

Row | oral absorption and bioavailability [3] | SMILES | efficacy versus placebo as determined with PANSS total scores (patients [1]) | dosage shown to be efficacious (patients [2])
1 |  | CSCC[C@H](N)C(=O)N[C@@]1(C(=O)O)CS(=O)(=O)[C@H]2[C@H](C(=O)O)[C@H]21 [poma, Pomaglumetad methionil] | not significantly more efficacious than the placebo | 40 mg BID
2 | low oral absorption and bioavailability | N[C@@]1(C(=O)O)CS(=O)(=O)[C@H]2[C@H](C(=O)O)[C@H]21 [pomaglumetad] |  | 
